Measurements: patent US12630594B2, “Allergy antigen and epitope for same” (HOYU CO., LTD., priority 2017, dated 2026)
Where no end group is shown, it is not given here.

Tests used:
Assay type in all cases: binding, human
[1] = system: IgE antibodies from patients; assay: Epitope mapping (2): overlapping 10-amino-acid peptide fragments shifted by one amino acid; conditions: positions numbered within the 15-amino-acid epitope; serum of 5 patients
Excerpt: On the basis of the sequences (SEQ ID NOs: 150-154 for alpha-actinin-3, SEQ ID NO: 155 for EEF1A2 binding protein-like, SEQ ID NOs: 156 and 157 for alpha-1,4-glucan phosphorylase, SEQ ID NOs: 158 and 159 for elongation factor 2, SEQ ID NOs: 160-162 for heat shock cognate 70 kDa protein, SEQ ID NOs: 163-167 for serotransferrin, SEQ ID NOs: 168-171 for myosin binding protein H-like, SEQ ID NOs: 172-174 for desmin (fragment), SEQ ID NOs: 175-178 for capping protein (actin filament) muscle Z-line beta, SEQ ID NOs: 179-185 for myosin heavy chain, fast skeletal muscle-like, SEQ ID NO: 186 for glycogen phosphorylase, muscle form-like, SEQ ID NOs: 187-196 for myosin-binding protein C, fast-type-like, SEQ ID NO: 197 for ATP synthase subunit beta, mitochondrial, SEQ ID NO: 198 for L-lactate dehydrogenase A chain-like, SEQ ID NO: 199 for aldolase, SEQ ID NOs: 200-202 for β-enolase, and SEQ ID NOs: 203 and 204 for glyceraldehyde-3-phosphate dehydrogenase) of the peptides bound to an IgE antibody in serum in a patient-specific manner as described above in (A), a library of overlapping peptide fragments (length: 10 amino acids) was prepared using the sequences of the peptides and sequences in which sequences were added so as to flank each peptide in the amino acid sequences of allergen components (SEQ ID NO: 2 for alpha-actinin-3, SEQ ID NO: 5 for EEF1A2 binding protein-like, SEQ ID NO: 10 for alpha-1,4-glucan phosphorylase, SEQ ID NO: 19 for elongation factor 2, SEQ ID NO: 26 for heat shock cognate 70 kDa protein, SEQ ID NO: 33 for serotransferrin, SEQ ID NO: 43 for myosin binding protein H-like, SEQ ID NO: 56 for desmin (fragment), SEQ ID NO: 61 for capping protein (actin filament) muscle Z-line beta, SEQ ID NO: 70 for myosin heavy chain, fast skeletal muscle-like, SEQ ID NO: 110 for glycogen phosphorylase, muscle form-like, SEQ ID NO: 121 for myosin-binding protein C, fast-type-like, SEQ ID NO: 138 for ATP synthase subunit beta, mitochondrial, SEQ ID NO: 144 for L-lactate dehydrogenase A chain-like, SEQ ID NO: 445 for aldolase, SEQ ID NO: 446 for β-enolase, and SEQ ID NO: 447 for glyceraldehyde-3-phosphate dehydrogenase) comprising the sequences of the peptide. Epitope mapping was carried out using the library.
The peptides to be synthesized were shifted by one amino acid.
The library was prepared by the same procedure as described above in (A), and the presence or absence of binding of an IgE antibody present in the serum of a patient and a non-fish-allergic subject to each peptide fragment was measured by the same technique as described above. Amino acids at positions where the binding activity against IgE antibodies from patients were lost or decreased in the peptides shifted by one amino acid while binding activity against IgE antibodies from non-fish-allergic subjects arose were confirmed as amino acids adversely affecting the specificity of binding to IgE antibodies.
Chemiluminescence intensity in images obtained by measurement was converted into a numeric value in the same manner as in (A) using ImageQuant TL (GE Healthcare). […]

[2] = system: IgE antibody from one patient having allergies to salmons and bastard halibut; assay: Confirmation of epitope cross-reactivity (ELISA, FIG. 5); conditions: for binding of IgE antibody to peptide: serum of fish-allergic patient with symptoms to salmon and bastard halibut vs serum mixture from 4 non-fish-allergic subjects, FIG. 5
Excerpt: FIG. 5 is a diagram showing results of measuring […] using the sera of a fish-allergic patient and a non-fish-allergic subject as to a peptide of epitope No. 11 (SEQ ID NO: 160) having the amino acid sequence “SMVLVKMKEIAEAYL” derived from salmon heat shock cognate 70 kDa protein, and a peptide having the amino acid sequence “AMVLVKMKETAEAYL” derived from bastard halibut heat shock cognate 70 kDa protein. The numeric values on the ordinate represent absorbance for light at a wavelength of 450 nm.
Amino acids other than particularly important amino acids in the region (SEQ ID NO: 250) important for binding, in epitope No. 11 having the amino acid sequence “SMVLVKMKEIAEAYL” (SEQ ID NO: 160) found in salmon heat shock cognate 70 kDa protein in Table 3 were defined as any given amino acid (X). NCBI was searched for proteins having the resulting amino acid sequence “EXXXXYL” (SEQ ID NO: 248). As a result, the amino acid sequence “AMVLVKMKETAEAYL” (SEQ ID NO: 451) of bastard halibut heat shock 70 kDa protein (accession number: XP_019944736.1) was identified. […]
To be specific, ELISA was carried out according to the following procedure. • (1) The concentrations of the biotinylated peptides were adjusted to 1 μg/mL with PBST. • (2) Each peptide solution was added at 40 μL to each well of a 384-well plate coated with streptavidin, and shaken at room temperature for one hour. […] Absorbance at 450 nm was measured.
A peptide having this amino acid sequence “AMVLVKMKETAEAYL” of bastard halibut heat shock 70 kDa protein and a peptide having the amino acid sequence “SMVLVKMKEIAEAYL” of salmon heat shock cognate 70 kDa protein were each prepared by the same procedure as in Example 10(A), and the presence or absence of binding thereto of IgE antibodies present in the serum of a fish-allergic patient having allergy symptoms to salmon and bastard halibut and the serum of a non-fish-allergic subject (serum mixture from 4 subjects) was measured by the same technique as therein.

[3] = system: IgE antibody in the serum of a fish-allergic patient; assay: Immunoblotting of two-dimensional electrophoresis patterns of fish meat proteins with patient serum; conditions: for spots detected by immunoblotting, different from spots with serum of non-fish-allergic subject: proteins contained in salmon meat; for specific binding to IgE antibodies from fish-allergic patients: spots in two-dimensional electrophoresis gel of proteins in fish, patients diagnosed with immediate-type allergy
Procedure: Proteins contained in fish were analyzed by the aforementioned technique to identify antigens of an allergy to fish. To be specific, proteins were extracted from fish meat and subjected to two-dimensional electrophoresis under the conditions described below.
The electrophoresis in the first dimension was isoelectric focusing, which was performed using isoelectric focusing gels with a gel-strip length of 5 to 10 cm and a gel pH range of 3 to 10. The pH gradient of the gels in the direction of electrophoresis was as follows: with the total gel-strip length being taken as 1, the gel-strip length up to pH 5 was “a=0.15 to 0.3”, the gel-strip length from pH 5 to 7 was “b=0.4 to 0.7”, and the gel-strip length above pH 7 was “c=0.15 to 0.3”. More specifically, the isoelectric focusing was performed using the IPG gels, Immobiline Drystrip (pH3-10NL), produced by GE Healthcare Bio-Sciences Corporation (hereinafter abbreviated as “GE”). The electrophoresis system used was IPGphor produced by GE. The maximum current of the electrophoresis system was limited to 75 μA per gel strip. The voltage program adopted to perform the first-dimensional isoelectric focusing was as follows: (1) a constant voltage step was performed at a constant voltage of 300 V until the volt-hours reached 750 Vhr (the current variation width during electrophoresis for 30 minutes before the end of this step was 5 μA); (2) the voltage was increased gradually to 1000 V for 300 Vhr; (3) the voltage was further increased gradually to 5000 V for 4500 Vhr; and then (4) the voltage was held at a constant voltage of 5000 V until the total Vhr reached 12000.
The electrophoresis in the second dimension was SDS-PAGE, which was performed using polyacrylamide gels whose gel concentration at the distal end in the direction of electrophoresis was set to 3 to 6% and whose gel concentration at the proximal end was set to a higher value than that at the distal end. More specifically, the SDS-PAGE was performed using NuPAGE 4-12% Bris-Tris Gels (IPG well, Mini, 1 mm) produced by Life Technologies. The electrophoresis system used was XCell SureLock Mini-Cell produced by Life Technologies. The electrophoresis was run at a constant voltage of 200 V for about 45 minutes using an electrophoresis buffer composed of 50 mM MOPS, 50 mM Tris base, 0.1% (w/v) SDS and 1 mM EDTA.
Identification of antigens by immunoblotting was carried out by taking all the steps up to the step of “Second-dimensional SDS-PAGE” as described above in Example 1, followed by the steps of “Transfer to membrane”, “Immunoblotting” and “Analysis” as described below.
To be specific, proteins in the second-dimensional electrophoresis gels were transferred to a membrane (PVDF membrane) according to the following procedure. • (1) The PVDF membrane was immersed in 100% methanol followed by milliQ water, and then moved into the transfer buffer to hydrophilize the PVDF membrane. • (2) After sponge, filter paper, the second-dimensional electrophoresis gels treated by second-dimensional SDS-PAGE, the hydrophilized PVDF membrane, filter paper, and sponge were put in place in this order, the transfer system was energized at a constant voltage of 30 V for one hour. Immunoblotting
Immunoblotting of the membrane was carried out using, as a primary antibody, a serum sample from patient 1 with a fish allergy or a serum sample from a non-fish-allergic subject. This fish-allergic patient 1 was a patient diagnosed with immediate-type allergy to fish. […]

[4] = serum from fish-allergic patient 3 (FIG. 1B right)
[5] = serum from fish-allergic patient 2 (FIG. 1B left)

11 (SMVLVKMKEIAEAYL; not fully specified (N-terminus)) [compound 11]
Positions of amino acids of region important for binding in epitope [1]: 9-15 | epitope cross-reactivity ([2]; between fish species): cross-reactivity between the fish species salmon and bastard halibut

AMVLVKMKETAEAYL (not fully specified (N-terminus))
binding of IgE antibody to peptide [2]: bound in a patient-specific manner

ATP synthase subunit beta, mitochondrial [Spot 13]
spots detected by immunoblotting, different from spots with serum of non-fish-allergic subject [3, 4]: newly detected | specific binding to IgE antibodies from fish-allergic patients [3]: specific binding to IgE antibodies

Capping protein (actin filament) muscle Z-line beta [Spot 9]
spots detected by immunoblotting, different from spots with serum of non-fish-allergic subject [3, 5]: detected | specific binding to IgE antibodies from fish-allergic patients [3]: specific binding to IgE antibodies

Elongation factor 2 [Spot 4]
specific binding to IgE antibodies from fish-allergic patients [3]: specific binding to IgE antibodies

Heat shock cognate 70 kDa protein [Spot 5]
specific binding to IgE antibodies from fish-allergic patients [3]: specific binding to IgE antibodies

L-lactate dehydrogenase A chain-like [Spot 14]
spots detected by immunoblotting, different from spots with serum of non-fish-allergic subject [3, 5]: newly detected | specific binding to IgE antibodies from fish-allergic patients [3]: specific binding to IgE antibodies

Myosin heavy chain, fast skeletal muscle-like [Spot 10]
spots detected by immunoblotting, different from spots with serum of non-fish-allergic subject [3, 4]: newly detected | specific binding to IgE antibodies from fish-allergic patients [3]: specific binding to IgE antibodies

SMVLVKMKEIAEAYL (not fully specified (N-terminus)) [Epitope No. 11]
binding of IgE antibody to peptide [2]: bound in a patient-specific manner
